The subject of one test is P. gingivalis. Put plainly: Minimum Inhibitory Concentration, fivefold dilution, no visual growth. Format: cell-based. The settings on record: 35±2° C. The procedure: (§1) Streak plates and characterization by gram-staining were done. MRSA and PA01 were grown on Tryptic Soy agar (TSA) plates and S. sanguinis on horse blood plates for up to 24 hours whereas P. gingivalis was grown between 4 and 5 days on Fastidious Anaerobic agar (FAA) plates. Fivefold dilution in at least five steps of gallium nitrate (Ga(NO3)3) or bismuth chloride (BiCl3) was done. Bismuth salt had to be suspended in DMSO in order to enable salt to dissolve in culture media.
(§2) Equal amounts of bacterial solution and antimicrobial salt (in fivefold dilution) were mixed and incubated at 35±2° C.: MRSA, PA01, and S. sanguinis for 24 hours and P. gingivalis for […]. After incubation, the concentration where no visual growth could be detected was documented.

Another test relates to S. sanguinis. The test is described as above. It counts as cell-based. The settings on record: 24 hours at 35±2° C. The procedure:
as §1, §2

A further test deals with PA01. Described as above. It counts as cell-based, Pseudomonas aeruginosa. To be noted: PA01, 24 hours at 35±2° C. The procedure:
as §1, §2

For another test, the system named is MRSA. It counts as cell-based, Staphylococcus aureus. To be noted: 24 hours at 35±2° C.
A further test has as its system Francisella novicida. To be noted: Olakanmi et al (2010); cited from earlier work.
Another test has as its system Pseudomonas aeruginosa. The settings on record: Kaneko et al. (2007); cited from earlier work.

The values that follow come from patent publication US20130266629A1, “MEDICAL DEVICE HAVING A SURFACE COMPRISING ANTIMICROBIAL METAL” (DENTSPLY INTERNATIONAL INC., priority 2012, published 2013).

Each structure is given as a SMILES string.

For the molecule `[Cl][Bi]([Cl])[Cl]` [BiCl3, bismuth chloride], the “Minimum Inhibitory Concentration (MIC)” value with P. gingivalis came to 1000 µg/mL; with S. sanguinis it was 40 µg/mL.

Consider `O=[N+]([O-])[O-].O=[N+]([O-])[O-].O=[N+]([O-])[O-].[Ga+3]` [Ga(NO3)3, gallium nitrate], for which the “Minimum Inhibitory Concentration (MIC)” value turned out to be 200 µg/mL in the test with PA01, 1000 µg/mL in the test with MRSA, 40 µg/mL in the test on P. gingivalis and 1000 µg/mL with S. sanguinis. Also, the “growth of Francisella novicida” value with Francisella novicida was “inhibited the growth”. For the same molecule, the “growth of Pseudomonas aeruginosa in batch cultures” value with Pseudomonas aeruginosa was “inhibits growth”.
